This passage reports IC50 and GI50 results from patent US8895744B2, “Alfa-carboline inhibitors of NPM-ALK, RET, and Bcr-Abl” (Universita' Degli Studi di Milano-Bicocca, priority 2008, dated 2014).

In one experiment the target is T1, Recombinant ALK kinase (Homo sapiens, UniProt Q9UM73).
T1 construct: made in house; host or cells: Sf9 insect cells (baculovirus)
As to the kind of experiment: ALK kinase inhibitory activity, ELISA-based in vitro kinase assay. As to conditions: purified rALK, 0.3 mM ATP, read-out: ALK IC50. In kind it is biochemical. The gist of the method: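 Sf9-expressed, purified recombinant ALK phosphorylated a plate-coated peptide substrate with 0.3 mM ATP, Mn2+/Mg2+, pH 7.5, 15 min at 30° C, after 10 min inhibitor preincubation. Phosphotyrosine was detected by anti-pTyr ELISA (TMB, A450); IC50 in μM is the concentration giving 50% inhibition relative to control.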

The subject of experiment [1] is parent untransformed BaF3 cells. As to the kind of experiment: Tritiated thymidine uptake cell proliferation assay, parental BaF3 (control). Type of experiment: cell-based. As to conditions: Mus musculus, 3[H]-thymidine uptake, 72 h, medium with IL-3, read-out: BaF parental IC50. Summed up: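 Control lines were parental BaF3 in IL-3-supplemented medium and ALK-, Abl- or RET-negative U937, seeded at 10 000 cells/well with serial inhibitor dilutions for 72 h at 37 °C. ³H-thymidine (1 μCi/well) was added for the final 16 h; IC50 (μM) is the concentration halving uptake versus DMSO.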

Experiment [2] deals with T2, BaF3 cells transformed with the oncogenic fusion protein NPM/ALK (Homo sapiens, UniProt Q9UM73).
T2 construct: fused on or other part: P06748 (Nucleophosmin)
As to the kind of experiment: Tritiated thymidine uptake cell proliferation assay, BaF3 NPM/ALK. In kind it is cell-based. As to conditions: 3[H]-thymidine uptake, 72 h; read-out: BaF NPM/ALK IC50. Summed up: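 Cells were seeded at 10 000/well with serial inhibitor dilutions or DMSO vehicle and incubated 72 h at 37 °C, with ^3[H]-thymidine (1 μCi/well) added for the final 16 h. Incorporation was read by β scintillation counting. IC50 (μM) is the concentration giving a 50% decrease in uptake versus controls.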

The target of experiment [3] is BaF3 cells transformed with the oncogenic fusion protein bcr-abl (Homo sapiens, UniProt P00519). As to the kind of experiment: Tritiated thymidine uptake cell proliferation assay, BaF3 BCR/ABL. In kind it is cell-based. The conditions noted are these: 3[H]-thymidine uptake, 72 h; read-out: BaF BCR/ABL IC50. As to the method: Inhibition of the Proliferation of Bcr/Abl Positive Cells
(§1) Method: Tritiated Thymidine Uptake Cell Proliferation Assay
(§2) The following procedure was used with parent untransformed BaF3 cells, BaF3 cells transformed with the oncogenic fusion protein bcr-abl, Abl-negative U937 cells, or Bcr-abl positive LAMA-84 cells. The parent untransformed BaF3 cells and Abl-negative U937 cells are used as controls. Cells were seeded in U-bottomed 96-well plates at 10 000 cells/well in a volume of 100 μL in supplemented medium. In the case of the parent untransformed BaF3 cells, the medium was supplemented with IL-3. Serial dilutions of inhibitors were added to the appropriate wells and volumes adjusted to 200 μL. Controls were treated with the equivalent volume of vehicle, DMSO, alone. Plates were incubated at 37° C. for 72 h. ^3[H]-thymidine (1 μCi/well) was added for the last 16 h of incubation. Cells were harvested on to paper filters and ^3[H]-thymidine incorporation was measured using a β scintillation counter (1430 MicroBeta, Wallac, Turku, Finland). The 50% inhibitory concentration (IC50) was defined as the concentration of inhibitor, expressed in micromolar, that gave a 50% decrease in ^3H-thymidine uptake compared with controls.

The test system of experiment [4] is NPM/ALK positive KARPAS-299 cells. As to the kind of experiment: Tritiated thymidine uptake cell proliferation assay, KARPAS-299. Type of experiment: cell-based. The conditions noted are these: 3[H]-thymidine uptake, 72 h, read-out: K299 (NPM/ALK+) IC50. On the procedure:
Inhibition of the proliferation of NPM/ALK positive cells
as §1
as §2, with “NPM/ALK, NPM/ALK positive SUDHL-1 cells, ALK-negative” for “bcr-abl, Abl-negative”, “NPM/ALK” for “or Bcr-abl”, “KARPAS-299” for “LAMA-84”, “Alk-negative” for “Abl-negative”, “^3[H]-thymidine” for “^3H-thymidine”

T1 sequence (Q9UM73 19-1620): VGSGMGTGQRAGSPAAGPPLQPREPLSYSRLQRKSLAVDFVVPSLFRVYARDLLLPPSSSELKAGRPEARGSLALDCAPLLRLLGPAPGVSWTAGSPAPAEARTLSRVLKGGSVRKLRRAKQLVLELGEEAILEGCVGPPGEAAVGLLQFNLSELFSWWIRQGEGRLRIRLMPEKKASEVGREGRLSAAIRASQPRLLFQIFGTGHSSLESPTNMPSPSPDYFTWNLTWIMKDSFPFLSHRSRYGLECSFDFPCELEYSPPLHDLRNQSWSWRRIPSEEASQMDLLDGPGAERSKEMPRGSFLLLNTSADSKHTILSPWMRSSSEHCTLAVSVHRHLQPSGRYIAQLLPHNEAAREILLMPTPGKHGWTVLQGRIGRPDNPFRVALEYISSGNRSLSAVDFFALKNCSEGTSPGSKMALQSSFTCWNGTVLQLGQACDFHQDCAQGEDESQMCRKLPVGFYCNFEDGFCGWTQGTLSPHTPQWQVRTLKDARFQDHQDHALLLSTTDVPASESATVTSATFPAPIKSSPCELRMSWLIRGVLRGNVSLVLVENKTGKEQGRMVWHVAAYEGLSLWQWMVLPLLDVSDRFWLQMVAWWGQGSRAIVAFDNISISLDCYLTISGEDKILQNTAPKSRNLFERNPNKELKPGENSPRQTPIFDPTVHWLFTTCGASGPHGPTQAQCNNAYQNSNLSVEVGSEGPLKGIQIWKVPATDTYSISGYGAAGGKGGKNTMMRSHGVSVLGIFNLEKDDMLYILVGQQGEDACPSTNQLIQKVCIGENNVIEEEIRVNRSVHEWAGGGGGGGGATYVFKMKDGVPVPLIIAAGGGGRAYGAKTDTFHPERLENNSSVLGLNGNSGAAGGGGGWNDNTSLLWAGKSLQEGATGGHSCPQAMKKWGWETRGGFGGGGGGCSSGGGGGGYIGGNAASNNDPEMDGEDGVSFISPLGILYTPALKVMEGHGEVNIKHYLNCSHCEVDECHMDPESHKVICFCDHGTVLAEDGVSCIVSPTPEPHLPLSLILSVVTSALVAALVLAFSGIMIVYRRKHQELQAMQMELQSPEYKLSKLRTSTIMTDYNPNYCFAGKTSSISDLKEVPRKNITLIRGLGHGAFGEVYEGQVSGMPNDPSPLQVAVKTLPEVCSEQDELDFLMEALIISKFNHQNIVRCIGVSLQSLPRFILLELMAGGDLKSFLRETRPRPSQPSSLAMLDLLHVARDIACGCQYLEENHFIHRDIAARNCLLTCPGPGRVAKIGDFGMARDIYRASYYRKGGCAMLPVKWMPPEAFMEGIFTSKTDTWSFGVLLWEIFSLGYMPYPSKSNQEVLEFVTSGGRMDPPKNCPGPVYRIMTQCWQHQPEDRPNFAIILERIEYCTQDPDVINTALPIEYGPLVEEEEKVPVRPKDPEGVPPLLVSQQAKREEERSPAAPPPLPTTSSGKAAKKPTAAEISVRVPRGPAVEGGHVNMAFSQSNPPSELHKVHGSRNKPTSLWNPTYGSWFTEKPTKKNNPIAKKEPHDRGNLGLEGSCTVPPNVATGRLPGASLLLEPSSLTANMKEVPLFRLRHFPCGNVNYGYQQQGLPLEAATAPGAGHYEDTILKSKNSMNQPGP
Chain of BaF3 cells transformed with the oncogenic fusion protein bcr-abl (P00519 whole entry, change not shown, the tested form may be a part): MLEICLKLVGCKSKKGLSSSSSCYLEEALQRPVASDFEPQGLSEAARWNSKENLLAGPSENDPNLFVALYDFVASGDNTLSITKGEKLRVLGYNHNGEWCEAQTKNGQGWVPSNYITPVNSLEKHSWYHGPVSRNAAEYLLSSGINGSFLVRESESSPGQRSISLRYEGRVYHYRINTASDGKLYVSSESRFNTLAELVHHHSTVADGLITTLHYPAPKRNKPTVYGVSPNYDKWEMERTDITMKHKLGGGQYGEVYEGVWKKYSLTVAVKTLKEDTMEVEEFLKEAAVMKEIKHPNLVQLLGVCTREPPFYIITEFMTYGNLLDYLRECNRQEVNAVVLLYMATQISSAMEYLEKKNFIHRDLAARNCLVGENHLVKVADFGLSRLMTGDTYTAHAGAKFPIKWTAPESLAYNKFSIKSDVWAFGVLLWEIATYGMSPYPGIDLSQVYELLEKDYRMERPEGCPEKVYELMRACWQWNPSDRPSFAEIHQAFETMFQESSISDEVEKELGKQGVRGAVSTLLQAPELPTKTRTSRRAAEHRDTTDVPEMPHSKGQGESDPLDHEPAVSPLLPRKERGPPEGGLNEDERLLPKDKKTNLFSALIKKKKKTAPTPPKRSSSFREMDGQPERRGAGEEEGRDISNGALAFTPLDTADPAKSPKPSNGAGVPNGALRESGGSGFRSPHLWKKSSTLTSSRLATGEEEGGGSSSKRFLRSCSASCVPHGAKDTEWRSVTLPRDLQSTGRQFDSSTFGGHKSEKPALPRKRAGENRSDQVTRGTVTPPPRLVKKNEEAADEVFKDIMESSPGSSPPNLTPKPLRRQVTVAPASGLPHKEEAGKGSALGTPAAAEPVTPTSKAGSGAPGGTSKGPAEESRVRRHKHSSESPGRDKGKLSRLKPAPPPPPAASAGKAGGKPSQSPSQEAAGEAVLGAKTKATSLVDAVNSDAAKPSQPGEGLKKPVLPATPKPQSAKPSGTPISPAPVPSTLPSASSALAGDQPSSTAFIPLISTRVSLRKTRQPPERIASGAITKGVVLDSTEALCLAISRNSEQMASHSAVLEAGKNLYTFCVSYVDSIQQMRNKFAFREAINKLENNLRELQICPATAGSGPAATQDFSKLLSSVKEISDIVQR
T2 sequence (Q9UM73 whole entry, change not shown, the tested form may be a part): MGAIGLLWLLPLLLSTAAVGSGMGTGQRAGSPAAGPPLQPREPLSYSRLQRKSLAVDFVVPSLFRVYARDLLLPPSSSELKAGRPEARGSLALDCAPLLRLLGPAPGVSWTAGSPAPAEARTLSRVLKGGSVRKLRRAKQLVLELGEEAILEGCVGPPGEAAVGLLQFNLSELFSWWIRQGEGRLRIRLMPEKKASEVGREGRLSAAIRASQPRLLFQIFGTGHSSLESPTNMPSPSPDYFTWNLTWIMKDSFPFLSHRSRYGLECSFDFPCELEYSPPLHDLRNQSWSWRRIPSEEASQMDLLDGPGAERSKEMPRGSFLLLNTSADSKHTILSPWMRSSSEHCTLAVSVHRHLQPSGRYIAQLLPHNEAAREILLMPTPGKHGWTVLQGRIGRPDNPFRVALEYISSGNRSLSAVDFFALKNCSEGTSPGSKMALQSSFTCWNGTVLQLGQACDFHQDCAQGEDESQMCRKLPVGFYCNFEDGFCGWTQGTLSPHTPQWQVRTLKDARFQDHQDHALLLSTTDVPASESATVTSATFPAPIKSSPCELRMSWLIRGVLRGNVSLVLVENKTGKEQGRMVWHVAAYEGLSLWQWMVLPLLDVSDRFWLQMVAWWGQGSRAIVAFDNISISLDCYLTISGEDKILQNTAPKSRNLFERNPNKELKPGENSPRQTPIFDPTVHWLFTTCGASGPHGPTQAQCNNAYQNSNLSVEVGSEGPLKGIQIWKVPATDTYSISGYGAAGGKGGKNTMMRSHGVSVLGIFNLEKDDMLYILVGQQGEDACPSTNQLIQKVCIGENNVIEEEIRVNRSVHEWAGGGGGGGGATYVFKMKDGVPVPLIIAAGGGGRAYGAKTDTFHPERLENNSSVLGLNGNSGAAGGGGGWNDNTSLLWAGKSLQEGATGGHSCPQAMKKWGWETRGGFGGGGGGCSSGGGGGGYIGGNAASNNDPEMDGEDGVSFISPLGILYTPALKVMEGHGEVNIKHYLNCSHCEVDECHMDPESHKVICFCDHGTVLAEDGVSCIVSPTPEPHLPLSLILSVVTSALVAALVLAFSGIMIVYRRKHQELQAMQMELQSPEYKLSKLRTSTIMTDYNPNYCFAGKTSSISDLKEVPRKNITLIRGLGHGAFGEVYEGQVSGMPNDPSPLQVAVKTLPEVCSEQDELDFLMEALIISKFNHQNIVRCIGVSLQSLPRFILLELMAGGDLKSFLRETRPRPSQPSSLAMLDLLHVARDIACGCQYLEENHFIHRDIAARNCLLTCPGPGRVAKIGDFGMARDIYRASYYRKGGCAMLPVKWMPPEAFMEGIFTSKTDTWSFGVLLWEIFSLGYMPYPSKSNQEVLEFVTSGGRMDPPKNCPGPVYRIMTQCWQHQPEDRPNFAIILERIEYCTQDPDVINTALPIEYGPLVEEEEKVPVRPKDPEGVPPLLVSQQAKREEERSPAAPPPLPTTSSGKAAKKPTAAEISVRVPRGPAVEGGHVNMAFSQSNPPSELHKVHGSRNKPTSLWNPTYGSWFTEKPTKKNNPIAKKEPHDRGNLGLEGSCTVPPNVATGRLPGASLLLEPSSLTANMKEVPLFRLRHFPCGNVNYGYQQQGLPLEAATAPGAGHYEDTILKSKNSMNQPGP

As to `Clc1cnc2[nH]c3ccc(Br)cc3c2c1` [R252, 6-bromo-3-chloro-9H-pyrido[2,3-b]indole], the IC50 is 1.7 ± 0.4 µM at Recombinant ALK kinase, above 20 µM in experiment [1] and above 20 µM in experiment [4]. In addition, the GI50 in experiment [2] and in experiment [3] was above 20 µM in each case.
